Measurements reported in patent US7670785B2, “Polynucleotides and polypeptides associated with the development of rheumatoid arthritis” (Bristol-Myers Squibb Company, priority 2001, dated 2010).

Key:
GBP-1 [1] = test: GBP-1 mRNA in stimulated synovial fibroblasts from rheumatoid arthritis patients, microarray; format: cell-based, human; conditions: RA synovial fibroblasts; TNFα, IL-1α, IL-17 10 ng/ml, IL-17b-Ig 5 ng/ml; FIG. 94A
Description: Synovial fibroblasts were obtained from Cell Applications, Inc. (San Diego, Calif.), and cultured for 1, 6, or 24 hours with either medium, TNFα (10 ng/ml), IL-1α (10 ng/ml, Peprotech), IL-17 (10 ng/ml, R&D Systems, Minneapolis, Minn.), or IL-17b-Ig fusion protein (5 ng/ml). The IL-17b protein was produced by fusing the full length IL-17b sequence (Shi et al., J. Biol. Chem. 275:19167-19176 (2000)) to the human IgG1 Fc region. At each time point, mRNA was isolated, labeled, and used to probe Affymetrix HG_U95Av2, HG_U95B, HG_U95C, HG_U95D, and HG_U95E chips.

mouse GBP-1 = test: GBP-1 mRNA in stimulated mouse fibroblasts, real time PCR; format: cell-based; conditions: 2 or 8 hours, TNFα 10 ng/ml or PMA 10 ng/ml, FIG. 90A
Description: (§1) Wild type 3T3 fibroblasts and immortalized fibroblast lines derived from p65 and IkBα germline knockouts were cultured in DMEM with 10% calf serum, glutamax and penicillin/streptomycin. Primary embryonic fibroblasts derived from germline knockouts of relB and p50 were cultured in DMEM with 10% fetal calf serum, glutamax and penicillin/streptomycin. The fibroblasts were plated at 5×10^5/well of a 6 well plate and cultured overnight at 37° C. in 5% CO2. Cells were stimulated for 2 or 8 hours with either medium, human TNFα (10 ng/ml) or PMA (10 ng/ml). At each time point, cells were harvested using trypsin/EDTA, washed one time with PBS, and stored at −80° C.
(§2) Total RNA was isolated from cells using the RNeasy® Kit from Qiagen (Valencia, Calif.), including the on-the-column DNase digestion procedure. RNA quality and quantity were evaluated using UV spectrometry. Total RNA was used for first-strand cDNA synthesis using the SuperScript™ First-Strand Synthesis System for RT-PCR (Invitrogen, Carlsbad, Calif.) following the manufacturer's instructions with 50 ng of random hexamers.
(§3) Reactions were performed in a total volume of 40 μl. […]
(§4) A relative value for the initial target concentration in each reaction was determined using the TaqMan 5700 software. […]

GBP-5 [2] = test: GBP-5 mRNA in resting and stimulated THP-1 monocytes, microarray; format: cell-based, human; conditions: IFN-γ 100 U/ml, TNFα 10 ng/ml, LPS 100 ng/ml, FIG. 92B
Description: (§5) For the microarray analyses, THP-1 cells (10^7/group) were cultured at 10^6/ml as above for 1, 6, 24, or 48 hours with either medium, TNFα (10 ng/ml), IFN-γ(100 U/ml), or LPS (100 ng/ml). At each time point, mRNA was isolated, labeled, and used to probe Affymetrix HG_U95Av2, HG_U95B, and HG_U95C chips.

GBP-1 [3] = test: GBP-1 expression in stimulated human microvascular endothelial cells, microarray; format: cell-based; conditions: three donors, TNFα 10, IL-1β 10, VEGF 30, bFGF 10 ng/ml, FIG. 93A
Description: (§6) Human microvascular endothelial cells from three different donors were obtained from Clonetics (Walkersville, Md.), and cultured in EGM-2 medium (Clonetics). Cells were cultured in 100 mm dishes coated with mouse type IV collagen and allowed to grow to approximately 80% confluency. The cells were then stimulated for 1, 6, or 24 hours with either medium, TNFα (10 ng/ml), or IL-1β (10 ng/ml). At each time point, mRNA was isolated, labeled and used to probe Affymetrix HG_U95Av2 and HG_U95B chips.
(§7) For VEGF and bFGF stimulations, microvascular endothelial cells from three independent donors were obtained, cultured in 100 mm dishes coated with mouse type IV collagen and allowed to grow to 30% confluency. At this time, the media was replaced with DMEM containing 2% fetal calf serum, and the cells were cultured an additional day. The cells were stimulated for 1, 6, or 24 hours with either medium, VEGF (30 ng/ml) or bFGF (10 ng/ml). At each time point, mRNA was isolated, labeled, and used to probe Affymetrix chips as described above.

GBP-5 [4] = test: GBP-5 expression in stimulated human microvascular endothelial cells, microarray; format: cell-based; conditions: for donors whose cells upregulated GBP-5 mRNA: human microvascular endothelial cells from three donors; for induction of GBP-5: human microvascular endothelial cells, three donors, TNFα 10, IL-1β 10 ng/ml, FIG. 93B
Description: as §6, §7

GBP-5 [5] = test: GBP-5 mRNA in stimulated mouse fibroblasts, real time PCR; format: cell-based; conditions: 2 or 8 hours, TNFα 10 ng/ml or PMA 10 ng/ml, FIG. 90B
Description: as §1, §2, §3, §4

GBP-1 [6] = test: GBP-1 mRNA in resting and stimulated THP-1 monocytes, microarray; format: cell-based, human; conditions: IFN-γ 100 U/ml, TNFα 10 ng/ml, LPS 100 ng/ml, FIG. 92A
Description: as §5

IL-1 = conditions: RA patients; cited from earlier work
GBP-1 [7] = test: LPS-induced GBP-1 mRNA in THP-1 monocytes, real time PCR; format: cell-based, human; conditions: THP-1, LPS 100 ng/ml, 2 hour stimulation
Description: (§8) For real time PCR analyses, THP-1 cells (10^7/group) were cultured at 10^6/ml in RPMI containing 10% heat inactivated fetal calf serum, 2 mM L-glutamine with either medium, BMS-205820 (2 uM), or dexamethasone (100 nM) for 30 minutes at 37° C. in 5% CO2. LPS was added to each group (100 ng/ml), and the incubation continued for 0.5-8 hr. At the end of each time point, cells were pelleted, washed one time with 10 ml PBS, and stored at −80° C.
as §2
(§9) Reactions were performed in a total volume of 40 μl. The master mix contained SYBR Green I Dye, 50 mM Tris-HCl pH8.3, 75 mM KCl, DMSO, Rox reference dye, 5 mM MgCl2, 2 mM dNTP, Platinum Taq High Fidelity (1 U/reaction), and 0.5 μM of each primer. Eight microliters of diluted cDNA was used in each PCR reaction. […]
as §4

GBP-5 [8] = test: LPS-induced GBP-5 mRNA in THP-1 monocytes, real time PCR; format: cell-based, human; conditions: THP-1, LPS 100 ng/ml, 2 hour stimulation
Description: as §8, §2, §9, §4

Fc gamma RI = conditions: RA patients, monocytes; cited from earlier work
TNF-α = target: T1, TNF-α (Homo sapiens, UniProt P01375); conditions: cited from earlier work
T1 construct: host or cells: RA patients (in vivo)

IL-15 = target: T2, IL-15 (Mus musculus, UniProt P48346); conditions: administration to mice; cited from earlier work
T2 construct: host or cells: mice (collagen-induced arthritis model)
T2 sequence (P48346 49-162): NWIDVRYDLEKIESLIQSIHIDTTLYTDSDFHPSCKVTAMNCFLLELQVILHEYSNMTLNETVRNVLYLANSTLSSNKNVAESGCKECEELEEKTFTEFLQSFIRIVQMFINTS

T1 sequence (P01375 77-233 limits assumed): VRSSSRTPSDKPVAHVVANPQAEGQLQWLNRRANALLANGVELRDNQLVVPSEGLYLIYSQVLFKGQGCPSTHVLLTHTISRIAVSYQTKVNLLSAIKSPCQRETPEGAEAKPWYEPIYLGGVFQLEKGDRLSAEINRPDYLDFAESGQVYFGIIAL

Molecule: TNFα
- GBP-1 mRNA induction (GBP-1 [1]): induced at 1 and 6 hours
- steady-state level of GBP-1 mRNA (mouse GBP-1): induced increased steady-state levels
- steady state level of GBP-5 mRNA (GBP-5 [2]): Much lower levels of expression were induced
- GBP-1 expression (GBP-1 [3]): strongly induced
- donors whose cells upregulated GBP-5 mRNA (GBP-5 [4]): two out of three
- induction of GBP-5 (GBP-5 [4]): variable
- steady-state level of GBP-5 mRNA (GBP-5 [5]): induced increased steady-state levels
- steady state level of GBP-1 mRNA (GBP-1 [6]): Much lower levels of expression were induced

Molecule: interferon-γ: cytokine used as stimulus of THP-1 monocytes
- steady state level of GBP-5 mRNA (GBP-5 [2]): strongly induced
- steady state level of GBP-1 mRNA (GBP-1 [6]): strongly induced

Molecule: IL-1Ra: natural inhibitor of IL-1, recombinant human IL-1 receptor antagonist
- clinical symptoms and rate of progressive joint damage (IL-1): significantly reduced

Molecule: lipopolysaccharide [LPS, reference compound]
- steady state level of GBP-5 mRNA (GBP-5 [2]): Much lower levels of expression were induced
- steady-state mRNA level of GBP-1 (GBP-1 [7]): significantly increased
- steady state level of GBP-1 mRNA (GBP-1 [6]): Much lower levels of expression were induced
- steady-state mRNA level of GBP-5 (GBP-5 [8]): significantly increased

Molecule: C[C@]12C=CC(=O)C=C1CC[C@@H]1[C@@H]2[C@@H](O)C[C@@]2(C)[C@H]1CC[C@]2(O)C(=O)CO [prednisolone]
- Fc gamma RI expression (Fc gamma RI): induced down-regulation

Molecule: CCCCCCCCCCCCCC(=O)O[C@@H]1[C@@H](C)[C@@]2(O)[C@@H](C=C(CO)C[C@]3(O)C(=O)C(C)=C[C@@H]23)[C@@H]2C(C)(C)[C@]12OC(C)=O [PMA, reference compound]
- steady-state level of GBP-5 mRNA (GBP-5 [5]): not

Molecule: IL-17: cytokine used as stimulus of synovial fibroblasts (R&D Systems)
- GBP-1 mRNA induction (GBP-1 [1]): not

Molecule: IL-1β: cytokine used as stimulus of endothelial cells
- GBP-1 expression (GBP-1 [3]): strongly induced
- donors whose cells upregulated GBP-5 mRNA (GBP-5 [4]): Only one donor
- induction of GBP-5 (GBP-5 [4]): variable

Molecule: basic FGF: growth factor used as stimulus of endothelial cells
- GBP-1 expression (GBP-1 [3]): No induction

Molecule: Etanercept
- number of swollen joints (TNF-α; RA patients): significant decrease
- numbers of T cells and plasma cells in the synovium (TNF-α; RA patients): significant decrease
- expression of VCAM-1 and IL-1 in the synovium (TNF-α; treated patients): decrease

Molecule: VEGF
- GBP-1 expression (GBP-1 [3]): No induction

B1: IL-17b: full length IL-17b sequence fused to the human IgG1 Fc region (protein)
chain: QPRSPKSKRKGQGRPGPLAPGPHQVPLDLVSRMKPYARMEEYERNIEEMVAQLRNSSELAQRKCEVNLQLWMSNKRSLSPWGYSINHDPSRIPVDLPEARCLCLGCVNPFTMQEDRSMVSVPVFSQVPVRRRLCPPPPRTGPCRQRAVMETIAVGCTCIF
- GBP-1 mRNA induction (GBP-1 [1]): not

B2: soluble IL-15 receptor alpha chain: soluble IL-15 receptor alpha chain administered to mice (protein, UniProt Q60819 33-205, looked up)
extracellular domain: GTTCPPPVSIEHADIRVKNYSVNSRERYVCNSGFKRKAGTSTLIECVINKNTNVAHWTTPSLKCIRDPSLAHYSPVPTVVTPKVTSQPESPSPSAKEPEAFSPKSDTAMTTETAIMPGSRLTPSQTTSAGTTGTGSHKSSRAPSLAATMTLEPTASTSLRITEISPHSSKMTK
modifications: extracellular domain
notes: soluble IL-15 receptor alpha chain administered to mice
- collagen-induced arthritis (IL-15): prevented

B3: IL-1a: cytokine used as stimulus of synovial fibroblasts (Peprotech) (protein, UniProt P01583 113-271, looked up)
Interleukin-1 alpha: SAPFSFLSNVKYNFMRIIKYEFILNDALNQSIIRANDQYLTAAALHNLDEAVKFDMGAYKSSKDDAKITVILRISKTQLYVTAQDEDQPVLLKEMPEIPKTITGSETNLLFFWETHGTKNYFTSVAHPNLFIATKQDYWVCLAGGPPSITDFQILENQA
- GBP-1 mRNA induction (GBP-1 [1]): induced at 1 and 6 hours
